Source: patent publication US9850283B2, “Macrocyclic inhibitors of the PD-1/PD-L1 and CD80(B7-1)/PD-L1 protein/protein interactions” (BRISTOL-MYERS SQUIBB COMPANY, priority 2013, dated 2017)
Like-named read-outs stand apart in the source and are kept apart here. Positions of bridges follow the written chain, without caps; N, C: chain ends. Non-standard residues stand in square brackets, D forms with d. Residues, ends and D or L forms follow the SMILES beside them. ξ: configuration not given here. Trp(1-CH2COOH) = N[C@@H](Cc1cn(CC(=O)O)c2ccccc12)C(=O)O; Phe(4-CH2NH2) = NCc1ccc(C[C@H](N)C(=O)O)cc1; Phe(4-F) = N[C@@H](Cc1ccc(F)cc1)C(=O)O; Bta = N[C@@H](Cc1csc2ccccc12)C(=O)O; cisHyp = O=C(O)[C@@H]1C[C@H](O)CN1; Hyp = O=C(O)[C@@H]1C[C@@H](O)CN1; NMeF = CN[C@@H](Cc1ccccc1)C(=O)O; dNMeNle = CCCC[C@@H](NC)C(=O)O; NMeNle = CCCC[C@H](NC)C(=O)O; NMeS = CN[C@@H](CO)C(=O)O; NMeA = CN[C@@H](C)C(=O)O; Orn = NCCC[C@H](N)C(=O)O; Dab = NCC[C@H](N)C(=O)O; Dap = NC[C@H](N)C(=O)O; ξC = NC(CS)C(=O)O; Sar = CNCC(=O)O

Columns and labels:
[1] = target: T1, LK35.2-hPD-L1 cells / PE-labeled PD-1-Ig (Homo sapiens, UniProt Q9NZQ7); assay: LK35.2-hPD-L1 cell binding high-content screening assay; assay type: cell-based; settings: cluster symbol, read-out: CBA IC50 cluster
T1 construct: expressed in transfected cells; host or cells: LK35.2 mouse B cell line
T1 sequence (Q9NZQ7 19-290): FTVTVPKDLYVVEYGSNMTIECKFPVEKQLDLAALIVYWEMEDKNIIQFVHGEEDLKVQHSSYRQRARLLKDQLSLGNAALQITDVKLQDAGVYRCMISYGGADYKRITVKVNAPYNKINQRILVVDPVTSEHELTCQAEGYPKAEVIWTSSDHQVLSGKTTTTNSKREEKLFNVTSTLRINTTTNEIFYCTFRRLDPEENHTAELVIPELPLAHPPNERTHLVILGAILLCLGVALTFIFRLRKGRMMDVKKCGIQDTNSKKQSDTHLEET
Method in brief: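 Mouse LK35.2 B cells stably overexpressing human PD-L1 were cultured overnight in RPMI with 10% FCS, then given compound and PE-labeled human PD-1-Ig (1 nM final) for 1 h at 37 °C. After three dPBS washes, bound fluorescence was quantified by high-content imaging.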

Human PD-L1/PD-1 = target: T2, Human PD-L1/PD-1 (Homo sapiens, UniProt Q9NZQ7); assay: HTRF PD-1-Ig/PD-L1-His binding assay (human PD-L1); settings: cluster symbol; read-out: HTRF IC50 cluster
T2 construct: made in house; host or cells: HEK293T
T2 sequence (Q9NZQ7 with tags, fused parts or gaps): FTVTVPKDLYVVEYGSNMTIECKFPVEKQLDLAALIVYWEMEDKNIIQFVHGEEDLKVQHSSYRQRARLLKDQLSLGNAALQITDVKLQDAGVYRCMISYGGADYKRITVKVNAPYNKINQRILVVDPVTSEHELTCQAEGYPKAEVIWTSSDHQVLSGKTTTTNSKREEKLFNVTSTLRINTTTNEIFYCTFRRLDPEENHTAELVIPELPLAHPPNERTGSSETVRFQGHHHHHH
Method in brief: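 Soluble PD-1-Ig binding to PD-L1-His measured by HTRF in dPBS with 0.1% BSA and 0.05% Tween-20. Detection used europium cryptate anti-Ig antibody (1 nM final) and APC anti-His antibody (20 nM final) added on top of the binding reaction.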

[2] = cell binding assay, cell line not given
[3] = cell line of CBA not given (LK35.2-hPD-L1 or 293T-hPD-L1)

Row | Compound | IC50 [1, 2] | IC50 (Human PD-L1/PD-1) | IC50 [1, 3]
1 | CCCC[C@H]1C(=O)N(C)CC(=O)N[C@@H](CC(=O)O)C(=O)N[C@@H](CC(C)C)C(=O)N(C)[C@@H](Cc2ccccc2)C(=O)N[C@@H](Cc2ccc(O)cc2)C(=O)N(C)CC(=O)N[C@@H](Cc2c[nH]c3ccccc23)C(=O)N[C@@H](Cc2ccc(O)cc2)C(=O)N[C@@H](CC(C)C)C(=O)N[C@H](C(=O)NCC(N)=O)CSCC(=O)N[C@@H](Cc2ccccc2)C(=O)N(C)[C@@H](Cc2ccccc2)C(=O)N1C [Example 3529] (HELM PEPTIDE1{[O=C(C[*:3])[*:2]].F.[meF].[CCCC[C@@H](C(=O)[*:2])N(C)[*:1]].[Sar].D.L.[meF].Y.[Sar].W.Y.L.C.G.[am]}$PEPTIDE1,PEPTIDE1,1:R3-14:R3$$$V2.0) | 4.78 to 72.9 nM | > 30.5 nM | 
2 | CCCC[C@H]1C(=O)N(C)CC(=O)N[C@@H](CC(=O)O)C(=O)N[C@@H](C(C)C)C(=O)N(C)[C@@H](Cc2ccccc2)C(=O)N[C@@H](Cc2ccc(CN)cc2)C(=O)N(C)CC(=O)N[C@@H](Cc2c[nH]c3ccccc23)C(=O)N[C@@H](Cc2ccc(O)cc2)C(=O)N[C@@H](CC(C)C)C(=O)N[C@H](C(=O)NCC(N)=O)CSCC(=O)N[C@@H](Cc2ccc(F)cc2)C(=O)N(C)[C@@H](Cc2ccccc2)C(=O)N1C [Example 3123] ({CH2CO}-[Phe(4-F)][NMeF][NMeNle][Sar]DV[NMeF][Phe(4-CH2NH2)][Sar]WYLCG-NH2; thioether N-13) |  | 6.76 to 30.3 nM | 0.158 to 4.71 nM
3 | CCCC[C@@H]1C(=O)N[C@@H](CC(C)C)C(=O)N[C@H](C(=O)NCC(N)=O)CSCC(=O)N[C@@H](Cc2ccc(O)cc2)C(=O)N(C)[C@@H](C)C(=O)N[C@@H](CC(N)=O)C(=O)N2CCC[C@H]2C(=O)N[C@@H](CN)C(=O)N[C@@H](CC(C)C)C(=O)N2C[C@@H](O)C[C@H]2C(=O)N[C@@H](Cc2c[nH]c3ccccc23)C(=O)N[C@@H](CCN)C(=O)N[C@@H](Cc2cn(CC(=O)O)c3ccccc23)C(=O)N(C)[C@@H](CCCC)C(=O)N1C [Example 6046] ({CH2CO}-Y[NMeA]NP[Dap]L[cisHyp]W[Dab][Trp(1-CH2COOH)][NMeNle][dNMeNle]LCG-NH2; thioether N-14) | 0.158 to 4.71 nM | 0.385 to 6.74 nM | 
4 | CCCC[C@H]1C(=O)N(C)[C@@H](CCCC)C(=O)N[C@@H](CCCN)C(=O)N[C@H](C(=O)NCC(N)=O)CSCC(=O)N[C@@H](Cc2ccc(O)cc2)C(=O)N(C)[C@@H](C)C(=O)N[C@@H](CC(=O)O)C(=O)N2CCC[C@H]2C(=O)N[C@@H](CN)C(=O)N[C@@H](CCC(N)=O)C(=O)N2C[C@H](O)C[C@H]2C(=O)N[C@@H](Cc2c[nH]c3ccccc23)C(=O)N[C@@H](CCN)C(=O)N[C@@H](Cc2csc3ccccc23)C(=O)N1C [Example 1182] ({CH2CO}-Y[NMeA]DP[Dap]Q[Hyp]W[Dab][Bta][NMeNle][NMeNle][Orn]CG-NH2; thioether N-14) |  | 0.385 to 6.74 nM | 0.158 to 4.71 nM
5 | CCCC[C@H]1C(=O)N(C)CC(=O)N[C@@H](CC(=O)O)C(=O)N[C@@H](C(C)C)C(=O)N(C)[C@@H](Cc2ccccc2)C(=O)N[C@@H](Cc2ccc(CN)cc2)C(=O)N(C)CC(=O)N[C@@H](Cc2csc3ccccc23)C(=O)N[C@@H](Cc2ccc(O)cc2)C(=O)N[C@@H](CC(C)C)C(=O)N[C@H](C(=O)NCC(N)=O)CSCC(=O)N[C@@H](Cc2ccccc2)C(=O)N(C)[C@@H](Cc2ccccc2)C(=O)N1C [Example 3141] ({CH2CO}-F[NMeF][NMeNle][Sar]DV[NMeF][Phe(4-CH2NH2)][Sar][Bta]YLCG-NH2; thioether N-13) |  | 6.76 to 30.3 nM | 4.78 to 72.9 nM

Further lines, results first:

Row | IC50 [1, 2] | IC50 (Human PD-L1/PD-1) | IC50 [1, 3] | Compound
6 |  | > 30.5 nM | > 74.3 nM | CCCC[C@H]1C(=O)N(C)[C@@H](CCCC)C(=O)N[C@@H](CCCNC(=N)N)C(=O)N[C@H](C(=O)NCC(N)=O)CSCC(=O)N[C@@H](Cc2ccccc2)C(=O)N(C)[C@@H](C)C(=O)N[C@@H](CC(N)=O)C(=O)N2CCC[C@H]2C(=O)N[C@@H](CC(=O)O)C(=O)N[C@@H](CC(C)C)C(=O)N(C)CC(=O)N[C@@H](Cc2c[nH]c3ccccc23)C(=O)N[C@@H](CO)C(=O)N[C@@H](Cc2c[nH]c3ccccc23)C(=O)N1C [Example 1064] ({CH2CO}-F[NMeA]NPDL[Sar]WSW[NMeNle][NMeNle]RCG-NH2; thioether N-14)
7 | 4.78 to 72.9 nM | 6.76 to 30.3 nM |  | CCCC[C@H]1C(=O)N(C)[C@@H](CO)C(=O)N[C@@H](CCCNC(=N)N)C(=O)NC(C(=O)NCC(N)=O)CSCC(=O)N[C@@H](Cc2ccc(O)cc2)C(=O)N(C)[C@@H](C)C(=O)N[C@@H](CC(N)=O)C(=O)N2CCC[C@H]2C(=O)N[C@@H](Cc2cnc[nH]2)C(=O)N[C@@H](CC(C)C)C(=O)N2CCC[C@H]2C(=O)N[C@@H](Cc2c[nH]c3ccccc23)C(=O)N[C@@H](CO)C(=O)N[C@@H](Cc2c[nH]c3ccccc23)C(=O)N1C (some centres unmarked) [Example 9032] ({CH2CO}-Y[NMeA]NPHLPWSW[NMeNle][NMeS]R[ξC]G-NH2; thioether N-14)
